Reference: US5686485A, “Physiologically active EI-1941 compounds” (Kyowa Hakko Kogyo Co., Ltd., priority 1995, dated 1997)

Legend:
Solubility = type: physicochemical; details: in methanol and acetonitrile
[1] = test system: production of IL-1β by human monocyte-derived THP-1 cells; experiment: Inhibitory activity against the production of IL-1β by human monocyte-derived THP-1 cells (LPS-stimulated, ELISA); type: cell-based; details: THP-1 cells differentiated with PMA 30 nM, 65 h, LPS 25 μg/ml, 4 hours, serum-free RPMI1640, test compound 0.05-50 μg/ml, read-out: IC50 (50% inhibitory concentration), IL-1 production inhibition
Method: The inhibitory activity of EI-1941 compounds against the production of IL-1β by human monocyte-derived THP-1 cells (ATCC No. TIB 202) was examined in the following manner. The amount of IL-1β was determined by the ELISA method.
THP-1 cells were suspended in RPMI1640 medium (Nissui Pharmaceutical Co., Ltd.) containing 10% inactivated fetal calf serum at a concentration of 1×10^5 cells/ml. The cell suspension was put into wells of a 24-well plate in an amount of 1 ml/well. Phorbol 12-myristate 13-acetate (PMA, final concentration: 30 nM) was added to the wells, followed by incubation in a 5% CO2 -incubator at 37° C. for 65 hours to differentiate the cells into macrophage.
Then, the plate was gently washed with serum-free RPMI1640 medium to remove the cells which were not adhered to the wells, and the residue was cultured for 4 hours in serum-free RPMI1640 medium (1 ml/well) containing lipopolysaccharide (LPS, final concentration: 25 μg/ml) and a test compound (final concentration: 0.05-50 μg/ml).
After the completion of culturing, the amount of IL-1β released into the culture supernatant was determined by using an IL-1β determination kit (Amersham Corp.).
The IL-1 production inhibition rate was calculated according to the following equation to obtain IC50 (50% inhibitory concentration).
IL-1 production inhibition rate (%)=(A-B)/(A-C)×100
A: Amount of IL-1 produced when only LPS is added […]

| Structure (SMILES) | Solubility (Solubility) | IC50 [1] [nM] |
| --- | --- | --- |
| CCCC1CC2=C(C(O)O1)C(O)C1OC1C2=O (centres unmarked) [EI-1941-1] | Readily soluble in methanol and acetonitrile | 1000 |
| CCCC1CC2=C(C(=O)O1)C(O)C1OC1C2=O (centres unmarked) [EI-1941-2] | Readily soluble in methanol and acetonitrile | 2200 |
| CCCC1CC2=C(C(=O)O1)C(O)C(O)CC2=O (centres unmarked) [EI-1941-3] | Readily soluble in methanol and acetonitrile |  |
